Results published in US20040029944A1 (priority 2001, published 2004).
Read-outs that look alike come from different tables or passages of the source.

Tested on: Phytophthora infestans
Type: in vivo
Conditions: individual active compound, tomato leaves, protective, evaluated after 6 days

## Cc1ccc(-c2c(Cl)nc(C#N)n2S(=O)(=O)N(C)C)cc1 [Ia, cyazofamid]
0.05 ppm in the spray liquor
  Efficacy in % of the untreated control: 58%
0.1 ppm in the spray liquor
  Efficacy in % of the untreated control: 74%
0.2 ppm in the spray liquor
  Efficacy in % of the untreated control: 84%
